Source: patent publication US6984649B1, “Pyridine derivatives” (Bayer Aktiengesellschaft, priority 2000, dated 2006)
Counter-ions that a name gives are not always drawn.

Experiments:
[1] = test system: Jurkat T cells; experiment: IL-2 production in Jurkat T cells in response to anti-CD3/anti-CD28 antibody stimulation; type: cell-based; settings: Homo sapiens, read-out: Cellular activity grade (Jurkat) (Cellular IC50)
[2] = target: T1, human IKK-β (Homo sapiens, UniProt O14920); experiment: IKK-β kinase inhibitory assay; type: biochemical; settings: compounds as yielded by solid phase synthesis, purity about 40 to 90%, read-out: In vitro activity grade (In vitro IC50)
T1 construct: A cDNA fragment encoding human IKK-β open reading frame was generated by PCR; His tag (from pcDNA3.1/His C); made in house; host or cells: Sf21 insect cells (baculovirus); substrate made in E. coli
T1 sequence (O14920 1-756): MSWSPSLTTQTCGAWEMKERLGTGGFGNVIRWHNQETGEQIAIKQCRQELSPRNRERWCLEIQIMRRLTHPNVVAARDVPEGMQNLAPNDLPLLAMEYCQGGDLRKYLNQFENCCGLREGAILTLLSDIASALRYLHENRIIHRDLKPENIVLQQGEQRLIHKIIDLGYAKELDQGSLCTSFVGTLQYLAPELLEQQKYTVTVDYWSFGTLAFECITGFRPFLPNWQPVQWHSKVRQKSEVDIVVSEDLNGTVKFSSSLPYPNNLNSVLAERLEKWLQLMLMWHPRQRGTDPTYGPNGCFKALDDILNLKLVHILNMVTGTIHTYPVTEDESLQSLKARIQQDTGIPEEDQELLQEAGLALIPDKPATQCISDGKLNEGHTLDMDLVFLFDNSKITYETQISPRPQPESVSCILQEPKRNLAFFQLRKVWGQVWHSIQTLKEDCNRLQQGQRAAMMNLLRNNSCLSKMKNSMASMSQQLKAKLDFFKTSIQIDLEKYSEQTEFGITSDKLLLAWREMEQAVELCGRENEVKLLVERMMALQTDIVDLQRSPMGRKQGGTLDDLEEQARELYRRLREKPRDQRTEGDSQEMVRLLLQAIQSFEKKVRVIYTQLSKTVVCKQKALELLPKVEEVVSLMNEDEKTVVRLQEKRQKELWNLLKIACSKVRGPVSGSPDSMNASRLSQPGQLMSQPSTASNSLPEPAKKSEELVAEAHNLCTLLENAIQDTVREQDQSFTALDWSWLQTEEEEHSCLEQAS
How it was run: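 His-tagged human IKK-β from baculovirus-infected Sf21 cells (0.6 μg/ml final) phosphorylates biotinylated GST-IκBα(1-54) (0.2 μM) in Tris-HCl pH 7.6 buffer with MgCl2. ATP with [γ-33P]ATP added, then 2 h at room temperature. Biotinylated substrate captured on streptavidin plates; bound radioactivity counted by scintillation.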

Row | SMILES | IC50 [1] | IC50 [2]
1 | N#Cc1c(C2CCCNC2)cc(-c2ccccc2O)nc1N (centres unmarked) [Example 1-1, 2-amino-6-(2-hydroxyphenyl)-4-(3-piperidinyl)-nicotinonitrile hydrochloride] | < 1000 nM | < 500 nM
2 | N#Cc1c(C2CCNC2)cc(-c2ccccc2O)nc1N (centres unmarked) [Example 1-2, 2-amino-6-(2-hydroxyphenyl)-4-(3-pirrolidinyl)nicotinonitrile trifluoroacetate] | 1000 to 10000 nM | < 500 nM
3 | N#Cc1c(N)nc(-c2ccccc2O)c(F)c1C1CCCNC1 (centres unmarked) [Example 1-4, 2-amino-5-fluoro-6-(2-hydroxyphenyl)-4-(3-piperidinyl)-nicotinonitrile trifluoroacetate] | 1000 to 10000 nM | < 500 nM
4 | N#Cc1c(C2CCCNC2)cc(-c2ccccc2O)nc1NCc1ccccc1 (centres unmarked) [Example 4-1, 2-(benzylamino)-6-(2-hydroxyphenyl)-4-(3-piperidinyl)nicotinonitrile hydrochloride] | 1000 to 10000 nM | < 500 nM
5 | Cc1c(C2CCCNC2)cc(-c2ccccc2O)nc1N (centres unmarked) [Example 14-1, 2-[6-amino-5-methyl-4-(3-piperidinyl)-2-pyridinyl]phenol hydrochloride] | 1000 to 10000 nM | < 500 nM
6 | O=C1Nc2nc(-c3ccccc3O)cc(C3CCCNC3)c2CO1 (centres unmarked) [Example 18-2, 7-(2-hydroxyphenyl)-5-(3-piperidinyl)-1,4-dihydro-2H-pyrido[2,3-d][1,3]oxazin-2-one hydrochloride] | 1000 to 10000 nM | < 500 nM
7 | Nc1nc(-c2c(O)cccc2OCC2CC2)cc(C2CCNCC2)c1CON1C(=O)CCC1=O [Example 21-4, 1-{[2-amino-6-[2-(cyclopropylmethoxy)-6-hydroxyphenyl]-4-(4-piperidinyl)-3-pyridinyl]methoxy}-2,5-pyrrolidinedione hydrochloride] |  | < 500 nM
8 | O=C1NCc2c(C3CCCNC3)cc(-c3ccccc3O)nc2N1 (centres unmarked) [Example 22-1, 7-(2-hydroxyphenyl)-5-(3-piperidinyl)-3,4-dihydropyrido[2,3-d]pyrimidin-2(1H)-one hydrochloride] |  | < 500 nM
9 | O=C1NCc2c(C3CCCNC3)cc(-c3c(O)cccc3OCC3CC3)nc2N1 (centres unmarked) [Example 22-2, 7-[2-(cyclopropylmethoxy)-6-hydroxyphenyl]-5-(3-piperidinyl)-3,4-dihydro-1H-pyrido[2,3-d]-pyrimidin-2-one hydrochloride] |  | < 500 nM
10 | O=C1NCc2c(C3CCNCC3)cc(-c3c(O)cccc3OCC3CC3)nc2N1 [Example 22-3, 7-[2-(cyclopropylmethoxy)-6-hydroxyphenyl]-5-(4-piperidinyl)-3,4-dihydro-1H-pyrido[2,3-d]pyrimidin-2-one hydrochloride] |  | < 500 nM
11 | O=S1(=O)NCc2c(C3CCCNC3)cc(-c3ccccc3O)nc2N1 (centres unmarked) [Example 22-5, 2-[2,2-dioxido-5-(3-piperidinyl)-3,4-dihydro-1H-pyrido[2,3-c][1,2,6]thiadiazin-7-yl]phenol hydrochloride] |  | < 500 nM
12 | CC(=O)NCc1c(C2CCCNC2)cc(-c2c(O)cccc2OCC2CC2)nc1N (centres unmarked) [Example 23-1, N-{[2-amino-6-[2-(cyclopropylmethoxy)-6-hydroxyphenyl]-4-(3-piperidinyl)-3-pyridinyl]methyl}acetamide hydrochoride] |  | < 500 nM
13 | CCOC(=O)NCc1c(C2CCCNC2)cc(-c2c(O)cccc2OCC2CC2)nc1N (centres unmarked) [Example 23-2, ethyl [2-amino-6-[2-(cyclopropylmethoxy)-6-hydroxyphenyl]-4-(3-piperidinyl)-3-pyridinyl]methylcarbamate hydrochloride] |  | < 500 nM
14 | Nc1nc(-c2c(O)cccc2OCC2CC2)cc(C2CCCNC2)c1CNC(=O)NC1CCCCC1 (centres unmarked) [Example 23-3, N-{[2-amino-6-[2-(cyclopropylmethoxy)-6-hydroxyphenyl]-4-(3-piperidinyl)-3-pyridinyl]methyl}-N′-cyclohexylurea hydrochloride] |  | < 500 nM
15 | CC(=O)N1Cc2c(C3CCCNC3)cc(-c3c(O)cccc3OCC3CC3)nc2NC1=O (centres unmarked) [Example 24-1, 3-acetyl-7-[2-(cyclopropylmethoxy)-6-hydroxyphenyl]-5-(3-piperidinyl)-3,4-dihydropyrido[2,3-d]pyrimidin-2(1H)-one hydrochloride] |  | < 500 nM
16 | Oc1cccc(OCC2CC2)c1-c1cc(C2CCCNC2)c2c(n1)NCCC2 (centres unmarked) [Example 28-01, 3-(cyclopropylmethoxy)-2-[4-(3-piperidinyl)-5,6,7,8-tetrahydro-1,8-naphthyridin-2-yl]phenol] |  | < 500 nM
17 | Nc1cc2c(C3CCCNC3)cc(-c3c(O)cccc3OCC3CC3)nc2[nH]c1=O (centres unmarked) [Example 29-01, 3-amino-7-[2-(cyclopropylmethoxy)-6-hydroxyphenyl]-5-(3-piperidinyl)-1,8-naphthyridin-2(1H)-one hydrochloride] |  | < 500 nM
18 | O=C(Nc1cc2c(C3CCCNC3)cc(-c3c(O)cccc3OCC3CC3)nc2[nH]c1=O)c1ccccc1 (centres unmarked) [Example 29-2, N-[7-[2-(cyclopropylmethoxy)-6-hydroxyphenyl]-2-oxo-5-(3-piperidinyl)-1,2-dihydro-1,8-naphthyridin-3-yl]benzamide hydrochloride] |  | < 500 nM
19 | CC(=O)Nc1cc2c(C3CCCNC3)cc(-c3c(O)cccc3OCC3CC3)nc2[nH]c1=O (centres unmarked) [Example 29-3, N-[7-[2-(cyclopropylmethoxy)-6-hydroxyphenyl]-2-oxo-5-(3-piperidinyl)-1,2-dihydro-1,8-naphthyridin-3-yl]acetamide hydrochloride] |  | < 500 nM
20 | O=C(O)c1cc2c(C3CCCNC3)cc(-c3c(O)cccc3OCC3CC3)nc2[nH]c1=O (centres unmarked) [Example 30-1, 7-(2-cyclopropylmethoxy-6-hydroxy-phenyl)-2-oxo-5-piperidin-3-yl-1,2-dihydro[1,8]naphthyridine-3-carboxylic acid hydrochloride] |  | < 500 nM
21 | CCCNC(=O)c1cc2c(C3CCCNC3)cc(-c3c(O)cccc3OCC3CC3)nc2[nH]c1=O (centres unmarked) [Example 31-1, 7-[2-(cyclopropylmethoxy)-6-hydroxyphenyl]-2-oxo-5-(3-pipedinyl)-N-propyl-1,2-dihydro-1,8-naphthyridine-3-carboxamide] |  | < 500 nM
22 | CS(=O)(=O)NC(=O)c1cc2c(C3CCCNC3)cc(-c3c(O)cccc3OCC3CC3)nc2[nH]c1=O (centres unmarked) [Example 31-2, N-{[7-[2-(cyclopropylmethoxy)-6-hydroxyphenyl]-2-oxo-5-(3-piperidinyl)-1,2-dihydro-1,8-naphthyridin-3-yl]carbonyl}methanesulfonamide hydrochloride] |  | < 500 nM
23 | Nc1ncnc2nc(-c3c(O)cccc3OCC3CC3)cc(C3CCCNC3)c12 (centres unmarked) [Example 32-1, 2-[4-amino-5-(3-piperidinyl)pyrido[2,3-d]pyrimidin-7-yl]-3-(cyclopropylmethoxy)phenol hydrochloride] |  | 2000 to 10000 nM
24 | N#Cc1ccc(-c2ccccc2O)nc1N [Example 33-1, 2-amino-6-(2-hydroxyphenyl)nicotinonitrile] |  | 500 to 2000 nM
25 | N#Cc1c(N2CCOCC2)cc(-c2ccccc2O)nc1N [Example 34-1, 2-amino-6-(2-hydroxyphenyl)-4-(4-morpholinyl)nicotinonitrile] |  | 500 to 2000 nM
26 | N#Cc1c(N2CCC(C(N)=O)CC2)cc(-c2ccccc2O)nc1N [Example 34-2, 1-[2-amino-3-cyano-6-(2-hydroxyphenyl)-4-pyridinyl]-4-piperidinecarboxamide] |  | 500 to 2000 nM
27 | N#Cc1c(N2CCCC(N)C2)cc(-c2ccccc2O)nc1N (centres unmarked) [Example 34-3, 2-amino-4-(3-amino-1-piperidinyl)-6-(2-hydroxyphenyl)nicotinonitrile hydrochloride] |  | 500 to 2000 nM
28 | N#Cc1c(NC2CCCNC2)cc(-c2ccccc2O)nc1N (centres unmarked) [Example 34-4, 2-amino-6-(2-hydroxyphenyl)-4-(3-piperidinylamino)nicotinonitrile hydrochloride] |  | < 500 nM
29 | NCCNc1cc(-c2c(O)cccc2OCC2CC2)nc2c1COC(=O)N2 [Example 35-1, 5-[(2-aminoethyl)amino]-7-[2-(cyclopropylmethoxy)-6-hydroxyphenyl]-1,4-dihydro-2H-pyrido[2,3-d][1,3]oxazin-2-one hydrochloride] |  | < 500 nM
